Laboratory results reported in the NIST ThermoML archive (doi:10.1021/je500804j).
± gives the expanded uncertainty stated by the source.

Assay: mn = molality of the nth substance listed, in mol/kg
Details: 101 kPa, Liquid, Alternating current cell with electrodes

CCCCCCCC[N+](C)(C)CCCCCC[N+](C)(C)CCCCCCCC.[Br-].[Br-] + O
Details | electrical conductivity [S/m]
303.15 K, m1 = 0.1147 | 1.235 ± 0.005
303.15 K, m1 = 0.1161 | 1.242 ± 0.005
308.15 K, m1 = 0.00368 | 0.09215 ± 0.00058
308.15 K, m1 = 0.00726 | 0.1725 ± 0.00082
308.15 K, m1 = 0.01076 | 0.2453 ± 0.0011
308.15 K, m1 = 0.01417 | 0.3115 ± 0.0013
308.15 K, m1 = 0.0175 | 0.3725 ± 0.0015
308.15 K, m1 = 0.02076 | 0.4289 ± 0.0018
308.15 K, m1 = 0.02394 | 0.4827 ± 0.002
308.15 K, m1 = 0.02704 | 0.5324 ± 0.0022
308.15 K, m1 = 0.03008 | 0.5804 ± 0.0024
308.15 K, m1 = 0.03304 | 0.6259 ± 0.0025
308.15 K, m1 = 0.03595 | 0.6694 ± 0.0027
308.15 K, m1 = 0.03878 | 0.7099 ± 0.0029
308.15 K, m1 = 0.04156 | 0.7496 ± 0.003
308.15 K, m1 = 0.04428 | 0.7852 ± 0.0032
308.15 K, m1 = 0.04693 | 0.8231 ± 0.0033
308.15 K, m1 = 0.05209 | 0.8882 ± 0.0036
308.15 K, m1 = 0.05458 | 0.9163 ± 0.0037
308.15 K, m1 = 0.05703 | 0.9472 ± 0.0038
308.15 K, m1 = 0.05942 | 0.9728 ± 0.0039
308.15 K, m1 = 0.06177 | 1.001 ± 0.004
308.15 K, m1 = 0.06407 | 1.027 ± 0.0041
308.15 K, m1 = 0.06633 | 1.05 ± 0.0042
308.15 K, m1 = 0.06854 | 1.072 ± 0.0043
308.15 K, m1 = 0.07072 | 1.092 ± 0.0044
308.15 K, m1 = 0.07284 | 1.111 ± 0.0045
308.15 K, m1 = 0.07493 | 1.128 ± 0.0045
308.15 K, m1 = 0.07698 | 1.149 ± 0.0046
308.15 K, m1 = 0.079 | 1.164 ± 0.0047
308.15 K, m1 = 0.08097 | 1.182 ± 0.0048
308.15 K, m1 = 0.08291 | 1.195 ± 0.0048
308.15 K, m1 = 0.08482 | 1.211 ± 0.0049
308.15 K, m1 = 0.08669 | 1.225 ± 0.0049
308.15 K, m1 = 0.08852 | 1.238 ± 0.005
308.15 K, m1 = 0.09033 | 1.251 ± 0.005
308.15 K, m1 = 0.0921 | 1.264 ± 0.0051
308.15 K, m1 = 0.09385 | 1.276 ± 0.0051
308.15 K, m1 = 0.09556 | 1.286 ± 0.0052
308.15 K, m1 = 0.09725 | 1.298 ± 0.0052
308.15 K, m1 = 0.0989 | 1.308 ± 0.0053
308.15 K, m1 = 0.1005 | 1.319 ± 0.0053
308.15 K, m1 = 0.1021 | 1.326 ± 0.0053
308.15 K, m1 = 0.1037 | 1.337 ± 0.0054
308.15 K, m1 = 0.1053 | 1.346 ± 0.0054
308.15 K, m1 = 0.1068 | 1.354 ± 0.0054
308.15 K, m1 = 0.1083 | 1.363 ± 0.0055
308.15 K, m1 = 0.1098 | 1.37 ± 0.0055
308.15 K, m1 = 0.1112 | 1.38 ± 0.0056
308.15 K, m1 = 0.1127 | 1.385 ± 0.0056
308.15 K, m1 = 0.1141 | 1.392 ± 0.0056
313.15 K, m1 = 0.00383 | 0.1036 ± 0.00063
313.15 K, m1 = 0.00755 | 0.1854 ± 0.00085
313.15 K, m1 = 0.01119 | 0.2548 ± 0.0011
313.15 K, m1 = 0.01473 | 0.3279 ± 0.0014
313.15 K, m1 = 0.01819 | 0.3993 ± 0.0016
313.15 K, m1 = 0.02156 | 0.4651 ± 0.0019
313.15 K, m1 = 0.02485 | 0.5281 ± 0.0022
313.15 K, m1 = 0.02806 | 0.5866 ± 0.0024
313.15 K, m1 = 0.0312 | 0.6397 ± 0.0026
313.15 K, m1 = 0.03426 | 0.6934 ± 0.0028
313.15 K, m1 = 0.03725 | 0.7428 ± 0.003
313.15 K, m1 = 0.04018 | 0.7886 ± 0.0032
313.15 K, m1 = 0.04304 | 0.8328 ± 0.0034
313.15 K, m1 = 0.04583 | 0.8749 ± 0.0035
313.15 K, m1 = 0.04857 | 0.9139 ± 0.0037
313.15 K, m1 = 0.05386 | 0.9883 ± 0.004
313.15 K, m1 = 0.05642 | 1.024 ± 0.0041
313.15 K, m1 = 0.05893 | 1.055 ± 0.0042
313.15 K, m1 = 0.06138 | 1.086 ± 0.0044
313.15 K, m1 = 0.06379 | 1.114 ± 0.0045
313.15 K, m1 = 0.06615 | 1.139 ± 0.0046
313.15 K, m1 = 0.06845 | 1.165 ± 0.0047
313.15 K, m1 = 0.07072 | 1.19 ± 0.0048
313.15 K, m1 = 0.07293 | 1.212 ± 0.0049
313.15 K, m1 = 0.07511 | 1.236 ± 0.005
313.15 K, m1 = 0.07724 | 1.257 ± 0.005
313.15 K, m1 = 0.07933 | 1.276 ± 0.0051
313.15 K, m1 = 0.08138 | 1.296 ± 0.0052
313.15 K, m1 = 0.08339 | 1.314 ± 0.0053
313.15 K, m1 = 0.08537 | 1.332 ± 0.0053
313.15 K, m1 = 0.0873 | 1.348 ± 0.0054
313.15 K, m1 = 0.08921 | 1.364 ± 0.0055
313.15 K, m1 = 0.09107 | 1.378 ± 0.0055
313.15 K, m1 = 0.09291 | 1.392 ± 0.0056
313.15 K, m1 = 0.09471 | 1.406 ± 0.0056
313.15 K, m1 = 0.09648 | 1.418 ± 0.0057
313.15 K, m1 = 0.09822 | 1.432 ± 0.0058
313.15 K, m1 = 0.09993 | 1.444 ± 0.0058
313.15 K, m1 = 0.1016 | 1.457 ± 0.0059
313.15 K, m1 = 0.1032 | 1.467 ± 0.0059
313.15 K, m1 = 0.1049 | 1.476 ± 0.0059
313.15 K, m1 = 0.1065 | 1.487 ± 0.006
313.15 K, m1 = 0.108 | 1.493 ± 0.006
313.15 K, m1 = 0.1096 | 1.505 ± 0.006
313.15 K, m1 = 0.1111 | 1.516 ± 0.0061
313.15 K, m1 = 0.1126 | 1.527 ± 0.0061
313.15 K, m1 = 0.1141 | 1.537 ± 0.0062
313.15 K, m1 = 0.1155 | 1.545 ± 0.0062
